# Assay results as given in US10576064B2, “Spiro[3H-indole-3,2′-pyrrolidin]-2(1H)-one compounds and derivatives as MDM2-P53 inhibitors” (Boehringer Ingelheim International GmbH, priority 2014, dated 2020).
# Target: p53-MDM2 interaction (GST-MDM2 protein aa 23-117 / biotinylated p53 wt peptide) (Homo sapiens (Human), UniProt Q00987)
# Assay: MDM2-p53 Inhibition AlphaScreen
# Assay type: biochemical
# Details: 20 nM GST-MDM2 (aa 23-117), 20 nM biotinylated p53 wt peptide
# Description: MDM2-p53 Inhibition AlphaScreen
row,Structure (SMILES),IC50 [nM]
1,O=C1NC[C@H]2[C@@H]1[C@H](c1cccc(Cl)c1F)[C@]1(C(=O)Nc3cc(Cl)ccc31)N2CC1CC1 [Compound I-39],32
2,CC(C)(C)CN1[C@H]2CCN(c3ccc(C(=O)O)cc3)C(=O)[C@H]2[C@H](c2cccc(Cl)c2F)[C@]12C(=O)Nc1cc(Cl)ccc12 [Compound I-202],48
3,CN(O)C(=O)c1ccc(N2CC[C@H]3[C@@H](C2=O)[C@H](c2cccc(Cl)c2F)[C@]2(C(=O)Nc4cc(Cl)ccc42)N3CC2CC2)cc1 [Compound I-276],46
4,O=C(O)c1ccc(N2CC[C@@H]3[C@H](C2=O)[C@@H](c2cccc(Cl)c2F)[C@@]2(C(=O)Nc4cc(Cl)ccc42)N3CC2CC2)cc1 [Compound I-172],302
5,O=C1NCC[C@H]2[C@@H]1[C@H](c1cccc(Cl)c1F)[C@]1(C(=O)Nc3cc(Br)ccc31)N2CC1CC1 [Compound I-21],64
6,Nc1ccc(N2CC[C@H]3[C@@H](C2=O)[C@H](c2cccc(Cl)c2F)[C@]2(C(=O)Nc4cc(Cl)ccc42)N3CC2CC2)cc1 [Compound I-292],164
7,O=C(O)c1ccc(N2CC[C@H]3[C@@H](C2=O)[C@H](c2cccc(Cl)c2F)[C@]2(C(=O)Nc4cc(Cl)ccc42)N3CC2CC2)c([N+](=O)[O-])c1 [Compound I-192],40
8,Cc1cc(N2CC[C@H]3[C@@H](C2=O)[C@H](c2cccc(Cl)c2F)[C@]2(C(=O)Nc4cc(Cl)ccc42)N3CC2CC2)cc(C)c1C(=O)O [Compound I-206],46
9,CCOc1cccc(CN2[C@H]3CCNC(=O)[C@H]3[C@H](c3cccc(Cl)c3F)[C@]23C(=O)Nc2nc(Cl)ccc23)c1 [Compound I-9],30
10,COCc1cc(N2CC[C@H]3[C@@H](C2=O)[C@H](c2cccc(Cl)c2F)[C@]2(C(=O)Nc4cc(Cl)ccc42)N3CC2CC2)ccn1 [Compound I-90],124
11,CN(C)C(=O)c1ccc(N2CC[C@H]3[C@@H](C2=O)[C@H](c2cccc(Cl)c2F)[C@]2(C(=O)Nc4cc(Cl)ccc42)N3CC2CC2)cc1 [Compound I-272],25
12,CCOc1cccc(CN2[C@H]3CNC(=O)[C@H]3[C@H](c3cccc(Cl)c3F)[C@]23C(=O)Nc2cc(Cl)ccc23)c1 [Compound I-43],8
13,CCOc1cccc(CN2[C@H]3CN(Cc4ccc(C(=O)O)cc4)C(=O)[C@H]3[C@H](c3cccc(Cl)c3F)[C@]23C(=O)Nc2cc(Cl)ccc23)c1 [Compound I-246],17
14,O=C(O)c1ccc(N2CC[C@H]3[C@@H](C2=O)[C@H](c2cccc(Cl)c2F)[C@]2(C(=O)Nc4cc(Cl)c(F)cc42)N3CC2CC2)cc1 [Compound I-173],29
15,CCOc1cccc(CN2[C@@H]3CN(c4ccc(C(=O)O)cc4)C(=O)[C@@H]3[C@@H](c3cccc(Cl)c3F)[C@@]23C(=O)Nc2cc(Cl)ccc23)c1 [Compound I-239],1160
16,COc1cc(C(=O)O)ccc1N1CC[C@H]2[C@@H](C1=O)[C@H](c1cccc(Cl)c1F)[C@]1(C(=O)Nc3cc(Cl)ccc31)N2CC1CCC1 [Compound I-200],134
17,CCOc1cccc(CN2[C@H]3CCNC(=O)[C@H]3[C@H](c3cccc(Cl)c3)[C@]23C(=O)Nc2cc(Cl)ccc23)c1 [Compound I-7],30
18,CCOc1cccc(CN2[C@H]3CCN(c4ccc(C(=O)OC)cc4)C(=O)[C@H]3[C@H](c3cccc(Cl)c3F)[C@]23C(=O)Nc2cc(Cl)ccc23)c1 [Compound I-71],68
19,O=C1OCC[C@H]2[C@@H]1[C@H](c1cccc(Cl)c1F)[C@]1(C(=O)Nc3cc(Cl)ccc31)N2CC1CC1 [Compound I-37],292
20,COC(=O)c1ccc(N2C[C@H]3[C@@H](C2=O)[C@H](c2cccc(Cl)c2F)[C@]2(C(=O)Nc4cc(Cl)ccc42)N3CC2CC2)cc1 [Compound I-123],38
21,O=C(O)c1ccc(N2C[C@H]3[C@@H](C2=O)[C@H](c2cccc(Cl)c2F)[C@]2(C(=O)Nc4cc(Cl)ccc42)N3CC2CC2)cc1OC(F)(F)F [Compound I-259],11
22,COc1cc(C(=O)O)ccc1N1CC[C@H]2[C@@H](C1=O)[C@H](c1cccc(Cl)c1)[C@]1(C(=O)Nc3cc(Cl)ccc31)N2CC1CC1 [Compound I-181],92
23,N#Cc1ccc(N2CC[C@H]3[C@@H](C2=O)[C@H](c2cccc(Cl)c2F)[C@]2(C(=O)Nc4cc(Cl)ccc42)N3CC2CC2)cc1 [Compound I-86],159
24,COc1cccc(CN2[C@H]3CCN(Cc4ccc(C(=O)O)cc4)C(=O)[C@H]3[C@H](c3cccc(Cl)c3F)[C@]23C(=O)Nc2cc(Cl)ccc23)c1 [Compound I-214],34
25,NC(=O)c1ccc(N2C[C@H]3[C@@H](C2=O)[C@H](c2cccc(Cl)c2F)[C@]2(C(=O)Nc4cc(Cl)ccc42)N3CC2CC2)cc1C(F)(F)F [Compound I-281],67
26,CC(C)(C)CN1[C@H]2CCN(Cc3ccc(C(=O)O)cc3)C(=O)[C@H]2[C@H](c2cccc(Cl)c2F)[C@]12C(=O)Nc1cc(Cl)ccc12 [Compound I-210],158
27,O=C(NO)c1ccc(N2C[C@H]3[C@@H](C2=O)[C@H](c2cccc(Cl)c2F)[C@]2(C(=O)Nc4cc(Cl)ccc42)N3CC2CC2)cc1 [Compound I-285],8

row,Structure (SMILES),IC50 [nM]
1,O=C(O)c1ccc(N2C[C@@H]3[C@H](C2=O)[C@@H](c2cccc(Cl)c2F)[C@@]2(C(=O)Nc4cc(Cl)ccc42)N3CC2CC2)cc1 [Compound I-218],460
2,O=C(NO)c1ccc(N2CC[C@H]3[C@@H](C2=O)[C@H](c2cccc(Cl)c2F)[C@]2(C(=O)Nc4cc(Cl)ccc42)N3CC2CC2)cc1 [Compound I-274],20
3,CC(C)(C)CN1[C@H]2CN(c3ccc(C(=O)O)cc3)C(=O)[C@H]2[C@H](c2cccc(Cl)c2F)[C@]12C(=O)Nc1cc(Cl)ccc12 [Compound I-229],5
4,O=C1NCC[C@H]2[C@@H]1[C@H](c1cccc(Cl)c1F)[C@]1(C(=O)Nc3cc(Cl)ccc31)N2CC1CCC1 [Compound I-19],240
5,CS(=O)(=O)c1ccc(N2CC[C@H]3[C@@H](C2=O)[C@H](c2cccc(Cl)c2F)[C@]2(C(=O)Nc4cc(Cl)ccc42)N3CC2CC2)cc1 [Compound I-76],42
6,O=C(O)c1ccc(N2C[C@H]3[C@@H](C2=O)[C@H](c2cccc(Cl)c2F)[C@]2(C(=O)Nc4cc(Cl)ccc42)N3CC2CC2)cc1 [Compound I-216],6
7,O=C1[C@@H]2[C@H](CCN1c1ccncc1)N(CC1CC1)[C@@]1(C(=O)Nc3cc(Cl)ccc31)[C@H]2c1cccc(Cl)c1F [Compound I-92],193
8,COc1cc(N2C[C@H]3[C@@H](C2=O)[C@H](c2cccc(Br)c2F)[C@]2(C(=O)Nc4cc(Cl)ccc42)N3CC2CC2)ccc1C(=O)O [Compound I-250],9
9,CN(C)C(=O)c1ccc(N2C[C@H]3[C@@H](C2=O)[C@H](c2cccc(Cl)c2F)[C@]2(C(=O)Nc4cc(Cl)ccc42)N3CC2CC2)cc1 [Compound I-286],10
10,CCOc1cccc(CN2[C@H]3CN(Cc4ccc(C(=O)O)cc4)C(=O)[C@H]3[C@H](c3cccc(Cl)c3F)[C@@]23C(=O)Nc2cc(Cl)ccc23)c1 [Compound I-248],485
11,CC1CC1CN1[C@H]2CCN(c3ccc(S(C)(=O)=O)cc3)C(=O)[C@H]2[C@H](c2cccc(Cl)c2F)[C@]12C(=O)Nc1cc(Cl)ccc12 (some centres unmarked) [Compound I-78],120
12,NC(=O)c1ccc(N2C[C@H]3[C@@H](C2=O)[C@H](c2ccnc(Cl)c2F)[C@]2(C(=O)Nc4cc(Cl)ccc42)N3CC2CC2)cc1 [Compound I-288],8
13,O=C(O)c1ccc(N2CC[C@H]3[C@@H](C2=O)[C@H](c2cccc(Cl)c2F)[C@]2(C(=O)Nc4cc(Cl)ccc42)N3CC2CC2)cc1 [Compound I-170],11
14,O=C(O)c1ccc(N2C[C@H]3[C@@H](C2=O)[C@H](c2cccc(Cl)c2F)[C@]2(C(=O)Nc4cc(Cl)ccc42)N3CC2CC2)cc1C(F)(F)F [Compound I-256],27
15,CCOc1cccc(CN2[C@H]3CN(c4ccc(C(=O)O)cc4)C(=O)[C@H]3[C@H](c3cccc(Cl)c3F)[C@]23C(=O)Nc2cc(Cl)ccc23)c1 [Compound I-237],2
16,CCOc1cccc(CN2[C@H]3CCN(Cc4ccc(C(=O)O)cc4)C(=O)[C@H]3[C@H](c3cccc(Cl)c3F)[C@]23C(=O)Nc2cc(Cl)ccc23)c1 [Compound I-212],21
17,O=C(O)c1ccc(N2C[C@@H]3[C@H](C2=O)[C@@H](c2cccc(Cl)c2F)[C@@]2(C(=O)Nc4cc(Cl)ccc42)N3CC2CCCCC2)cc1 [Compound I-235],980
18,O=C(O)c1cccc(N2CC[C@H]3[C@@H](C2=O)[C@H](c2cccc(Cl)c2F)[C@]2(C(=O)Nc4cc(Cl)ccc42)N3CC2CC2)c1 [Compound I-175],2130
19,O=C(O)c1ccc(N2CC[C@H]3[C@@H](C2=O)[C@H](c2cccc(Cl)c2F)[C@]2(C(=O)Nc4cc(Cl)ccc42)N3CC2CCC2)cc1 [Compound I-198],27
20,CC(C)(C)CN1[C@H]2CN(c3ccc(C(=O)O)cc3)C(=O)[C@H]2[C@H](c2cccc(Cl)c2F)[C@]12C(=O)Nc1cc(Cl)ccc12 [Compound I-228],11
21,CCOc1cccc(CN2[C@H]3CN(c4ccc(C(=O)O)cc4)C(=O)[C@H]3[C@H](c3cccc(Cl)c3F)[C@]23C(=O)Nc2nc(Cl)ccc23)c1 [Compound I-240],4
22,O=C(O)c1ccc(N2C[C@H]3[C@@H](C2=O)[C@H](c2cccc(Cl)c2F)[C@]2(C(=O)Nc4cc(Cl)ccc42)N3CCC(F)(F)F)cc1 [Compound I-226],12
23,O=C(CO)c1ccc(N2C[C@H]3[C@@H](C2=O)[C@H](c2cccc(Cl)c2F)[C@]2(C(=O)Nc4cc(Cl)ccc42)N3CC2CC2)cc1 [Compound I-262],21
24,O=C(O)c1ccc(N2CC[C@H]3[C@@H](C2=O)[C@H](c2cccc(Cl)c2F)[C@]2(C(=O)Nc4cc(Cl)ccc42)N3CC2CC2)cn1 [Compound I-183],10
25,O=C(O)CNc1ccc(N2CC[C@H]3[C@@H](C2=O)[C@H](c2cccc(Cl)c2F)[C@]2(C(=O)Nc4cc(Cl)ccc42)N3CC2CC2)cc1 [Compound I-306],67
26,COc1cc(C(=O)O)ccc1N1CC[C@H]2[C@@H](C1=O)[C@H](c1cccc(Cl)c1F)[C@]1(C(=O)Nc3cc(Cl)ccc31)N2CC1CC1 [Compound I-179],71
